Where a SMILES comes first, the peptide text is derived from it. [ ]: non-standard residue; d: D form. The star is where a group is joined. 1Nal = N[C@@H](Cc1cccc2ccccc12)C(=O)O; Tridecanoyl = CCCCCCCCCCCCC(=O)*; Nle = CCCC[C@H](N)C(=O)O; Octanoyl = CCCCCCCC(=O)*; Dap = NC[C@H](N)C(=O)O
Key:
[1] = system: fasted C57BL/6 mice; test: Food intake in fasted mice after SC administration; format: in vivo, mouse; conditions: SC administration; for % control: food intake vs saline
Outline: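 Male C57BL/6 mice, food-deprived 17 h, received saline, PrRP or lipidated analogs either SC at 1-10 mg/kg or ICV into the third ventricle at 4 nmol/mouse.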

[2] = system: MAPK/ERK1/2 signaling pathway in RC-4B/C cells; test: MAPK/ERK1/2 signaling in RC-4B/C cells (Western blot); format: cell-based, rat; conditions: 10^−6 mol·l^−1, 5 minute incubation
Description: RC-4B/C cells, which were used to determine if lipidated PrRP20 analogs are able to initiate the MAPK/ERK1/2 signaling pathway, were grown in 6-well plates up to the optimal density of […]. Seventeen hours before sample harvest, the growth medium was replaced by a serum-free medium lacking epidermal growth factor (EGF). The respective lipidated PrRP analog was added to each well in the final concentration of 10^−6 mol·l^−1. After a 5 minute incubation at 37° C., the plate was placed on ice and each well was rinsed three times with PBS pH 7.4 (137 mmol·l^−1 NaCl, 2.7 mmol·l^−1 KCl, 8 mmol·l^−1 Na2HPO4.2H2O a 1.76 mmol·l^−1 KH2PO4) and cooled to 4° C. […] Samples were collected in at least three independent experiments.
To determine if the lipidated PrRP20 analogs initiated the MAPK/ERK1/2 signaling pathway, Western blot analysis was used. Electrophoresis was performed on 5%/12% polyacrylamide gel in the presence of SDS (SDS-PAGE) on the instrument MiniProtean 3 (BioRad, Herkules, Calif., USA). Samples that were loaded on the gel were first disintegrated by ultrasound, then heated at 100° C. for 2 minutes, and centrifuged for 5 minutes at 500×g at room temperature. […] Electrophoresis was performed at a constant voltage of 100 V for 10 minutes, or for 60 minutes at 150 V.
To show the presence of phosphorylated proteins in the samples, the proteins from the SDS-PAGE gel were transferred to the Immobilon™-P PVDF (polyvinylidene difluoride) membrane (Sigma-Aldrich, USA). The transfer was performed in blotting buffer at pH 8.3 (25 mmol·l^−1 Tris, 192 mmol·l^−1 glycine and 20% methanol) for 20 hours at 4° C. at a constant voltage of 30 V.
After the protein transfer to the PVDF membrane, the membranes were washed for 5 minutes in TBS washing buffer (20 mmol·l^−1 Tris, 140 mmol·l^−1 NaCl and 0.1% Tween-20) and then incubated for 1 hour in blocking buffer (TBS with 5% non-fat milk powder and 5 mmol·l^−1 Na3VO4 and 50 mmol·l^−1 NaF) at room temperature. Further, the membranes were washed three times for 5 minutes using the TBS washing buffer. The membranes were then incubated with the primary antibody against phospho-p44/42 MAPK(Thr202/Tyr204) (Cell Signaling Technology, Beverly, USA) which was diluted in blocking buffer at 1:1000. After the next three washes with the TBS washing buffer for 5 minutes, the membranes were incubated for 1 hour with rabbit secondary antibody labeled with peroxidase (Sigma, St. Louis, USA) which was diluted in blocking buffer at 1:12,000.
The membranes were then washed three times in TBS washing buffer for 5 minutes and then the solution Femto (Pierce SuperSignal, Thermo Fisher Scientific, Rockford, Ill., USA) was applied. The induced chemiluminiscence was detected by a CCD camera (LAS 3000, Fuji Photo Film GmBH, Düsseldorf, Germany).
To assess the initiation of signaling pathways, a densitometric analysis using the program Quantity One (BioRad, Hercules, Calif., USA) was used. For statistical evaluation of the statistically significant response of the cellular signaling, one-way ANOVA with subsequent Dunnett post-hoc test was used. Data was statistically significant at P<0.05.

[3] = system: fasted C57BL/6 mice; test: Food intake in fasted mice after ICV administration; format: in vivo; conditions: 4 nmol/mouse; for % control: food intake vs saline
Description: Male C57BL/6 mice (An Lab, Prague 4) were bred in the accredited animal facility in the Institute of Organic Chemistry and Biochemistry, Czech Academy of Sciences, Prague, at the Institute of Molecular Genetics, Prague 4, at the temperature of 22±2° C. with access to food and water ad libitum. The day/night cycle was 12/12 hours (light turned on at 6:00 am). Animals were treated according to the Animal Protection Act (Act No. 246/1992). The males were fed standard chow diet St-1 (Mlýn Kocanda, Praha, Czech Republic) which contained 66% saccharides, 25% proteins and 9% lipids with a caloric value of 3.4 kcal/g.
The food was withdrawn 17 hours prior to injection of lipidated peptide and free access to water was maintained. The administration of saline, PrRP or lipidated analogs was performed either by SC injection at doses of 1-10 mg/kg (volume 0.2 ml/mouse), or by ICV using infusion pump (cannulae were inserted into the third brain ventricle 4 days before the experiment following the procedure of Maixnerová et al. (Maixnerová et al., 2011)). The single dose of peptide was 4 nmol/mouse (5 μl/mouse).
Fifteen minutes after the lipidated peptide administration, the mice were given pre-weighed food. The food was then weighed every 30 minutes for 5-10 hours. The administration of every dose was performed at least twice and one group of mice consisted of at least 6 mice. The results were presented as % of food intake as compared with the control group injected with saline.
Statistical evaluation was performed using program Graph-Pad Prism Software (San Diego, Calif., USA), and the one-way ANOVA with a subsequent Dunnettovým post-hoc test. The difference in food intake between mice injected with saline and mice injected with the examined peptide were considered statistically significant at P<0.05.

[4] = target: T1, rat PrRP receptor (GPR10) in RC-4B/C cells (Rattus norvegicus, UniProt Q64121); test: Competitive binding to rat pituitary RC-4B/C cells; conditions: ^125I-rat PrRP31, RC-4B/C cells
T1 construct: host or cells: RC-4B/C rat pituitary cell line
T1 sequence (Q64121 1-370): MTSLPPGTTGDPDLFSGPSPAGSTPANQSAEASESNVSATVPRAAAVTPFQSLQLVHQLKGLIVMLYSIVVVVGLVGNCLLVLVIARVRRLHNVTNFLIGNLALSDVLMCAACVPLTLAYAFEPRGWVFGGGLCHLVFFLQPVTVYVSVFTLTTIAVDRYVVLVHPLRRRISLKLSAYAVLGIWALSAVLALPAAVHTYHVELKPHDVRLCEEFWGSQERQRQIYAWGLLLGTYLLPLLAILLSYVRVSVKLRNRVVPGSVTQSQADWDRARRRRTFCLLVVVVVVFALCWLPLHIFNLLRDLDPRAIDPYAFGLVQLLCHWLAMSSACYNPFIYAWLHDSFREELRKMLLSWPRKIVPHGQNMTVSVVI
Description: Competitive binding experiments were performed according to Motulsky and Neubig (Motulsky, A., et al., “Analyzing radioligand binding data,” Curr Protoc Neurosci, Chapter 7, Unit 7.5, 2002). The rat pituitary cell line RC-4B/C (ATCC, Manassas, USA) was grown on 24-well plates which had their bottom coated with polyethyleneimine. The cells were grown to the optimal density of 300-450 thousand per well. […] Plates were incubated for 60 minutes at room temperature. After incubation, the cells were solubilized in 0.1 mol/l solution of NaOH and the radioactivity bound to the cells was counted using a γ-counter. The experiments were performed in duplicate and repeated at least three times. For evaluation of competitive binding experiments, the program Graph Pad Prism Software (San Diego, Calif., USA) was used. A method of nonlinear regression assuming one-site binding was used.

[5] = 45 minutes, dose not stated for these substances
[6] = 300 minutes, dose not stated for these substances

Compound	food intake ([1]; 45 minutes, 10 mg/kg) [g]	% control ([1]; 45 minutes, 10 mg/kg) [%]	food intake ([1]; 300 minutes, 10 mg/kg) [g]	% control ([1]; 300 minutes, 10 mg/kg) [%]	ERK signaling [2]	food intake ([3]; 45 minutes) [g]	% control ([3]; 45 minutes) [%]	food intake ([3]; 300 minutes) [g]	% control ([3]; 300 minutes) [%]	% of PrRP31 binding [4] [%]	food intake ([1]; 45 minutes, 5 mg/kg) [g]	% control ([1]; 45 minutes, 5 mg/kg) [%]	food intake ([1]; 300 minutes, 5 mg/kg) [g]	% control ([1]; 300 minutes, 5 mg/kg) [%]	food intake [1, 5] [g]	% control [1, 5] [%]	food intake [1, 6] [g]	% control [1, 6] [%]
CCCC[C@H](NC(=O)[C@H](CO)NC(=O)[C@H](Cc1c[nH]cn1)NC(=O)[C@H](CCC(N)=O)NC(=O)[C@H](Cc1c[nH]cn1)NC(=O)[C@H](C)NC(=O)[C@H](CCCNC(=N)N)NC(=O)[C@@H](N)CN)C(=O)N[C@@H](CCC(=O)O)C(=O)N[C@H](C(=O)N[C@@H](CCCNC(=N)N)C(=O)N[C@H](C(=O)N1CCC[C@H]1C(=O)N[C@@H](CC(=O)O)C(=O)N[C@H](C(=O)N[C@@H](CC(N)=O)C(=O)N1CCC[C@H]1C(=O)N[C@@H](C)C(=O)N[C@@H](Cc1c[nH]c2ccccc12)C(=O)N[C@@H](Cc1ccc(O)cc1)C(=O)N[C@H](C(=O)NCC(=O)N[C@@H](CCCNC(=N)N)C(=O)NCC(=O)N[C@H](C(=O)N[C@@H](CCCNC(=N)N)C(=O)N1CCC[C@H]1C(=O)N[C@H](C(=O)NCC(=O)N[C@@H](CCCNC(=N)N)C(=O)N[C@@H](Cc1ccccc1)C(N)=O)C(C)C)[C@@H](C)CC)[C@@H](C)O)[C@@H](C)CC)[C@@H](C)O)[C@@H](C)O [Analog 1] (H-[Dap]RAHQHS[Nle]ETRTPDINPAWYTGRGIRPVGRF-NH2)	0.38	117	1.05	97	agonist	0.39	70	0.71	53	132								
CCCCCCCCCCCCC(=O)NC[C@H](N)C(=O)N[C@@H](CCCNC(=N)N)C(=O)N[C@@H](C)C(=O)N[C@@H](Cc1c[nH]cn1)C(=O)N[C@@H](CCC(N)=O)C(=O)N[C@@H](Cc1c[nH]cn1)C(=O)N[C@@H](CO)C(=O)N[C@@H](CCCC)C(=O)N[C@@H](CCC(=O)O)C(=O)N[C@H](C(=O)N[C@@H](CCCNC(=N)N)C(=O)N[C@H](C(=O)N1CCC[C@H]1C(=O)N[C@@H](CC(=O)O)C(=O)N[C@H](C(=O)N[C@@H](CC(N)=O)C(=O)N1CCC[C@H]1C(=O)N[C@@H](C)C(=O)N[C@@H](Cc1c[nH]c2ccccc12)C(=O)N[C@@H](Cc1ccc(O)cc1)C(=O)N[C@H](C(=O)NCC(=O)N[C@@H](CCCNC(=N)N)C(=O)NCC(=O)N[C@H](C(=O)N[C@@H](CCCNC(=N)N)C(=O)N1CCC[C@H]1C(=O)N[C@H](C(=O)NCC(=O)N[C@@H](CCCNC(=N)N)C(=O)N[C@@H](Cc1ccccc1)C(N)=O)C(C)C)[C@@H](C)CC)[C@@H](C)O)[C@@H](C)CC)[C@@H](C)O)[C@@H](C)O [Analog 4] (H-[Dap](Tridecanoyl)RAHQHS[Nle]ETRTPDINPAWYTGRGIRPVGRF-NH2)					agonist	0.38	71	1.4	105	967	0.07	30	1.04	101				
CCCCCCCC(=O)NC[C@H](N)C(=O)N[C@@H](CCCNC(=N)N)C(=O)N[C@@H](C)C(=O)N[C@@H](Cc1c[nH]cn1)C(=O)N[C@@H](CCC(N)=O)C(=O)N[C@@H](Cc1c[nH]cn1)C(=O)N[C@@H](CO)C(=O)N[C@@H](CCCC)C(=O)N[C@@H](CCC(=O)O)C(=O)N[C@H](C(=O)N[C@@H](CCCNC(=N)N)C(=O)N[C@H](C(=O)N1CCC[C@H]1C(=O)N[C@@H](CC(=O)O)C(=O)N[C@H](C(=O)N[C@@H](CC(N)=O)C(=O)N1CCC[C@H]1C(=O)N[C@@H](C)C(=O)N[C@@H](Cc1c[nH]c2ccccc12)C(=O)N[C@@H](Cc1ccc(O)cc1)C(=O)N[C@H](C(=O)NCC(=O)N[C@@H](CCCNC(=N)N)C(=O)NCC(=O)N[C@H](C(=O)N[C@@H](CCCNC(=N)N)C(=O)N1CCC[C@H]1C(=O)N[C@H](C(=O)NCC(=O)N[C@@H](CCCNC(=N)N)C(=O)N[C@@H](Cc1cccc2ccccc12)C(N)=O)C(C)C)[C@@H](C)CC)[C@@H](C)O)[C@@H](C)CC)[C@@H](C)O)[C@@H](C)O [Analog 8] (H-[Dap](Octanoyl)RAHQHS[Nle]ETRTPDINPAWYTGRGIRPVGR[1Nal]-NH2)					agonist	0.34	60	1.05	79	13					0.17	76	0.78	90

Reference: patent publication US9937235B2, “Lipidated peptides as anti-obesity agents” (USTAV ORGANICKE CHEMIE A BIOCHEMIE AKADEMIE VED CR, V.V.I, priority 2012, dated 2018)
